Where two headings read alike, the source gives them in different places.
Legend:
[1] = Pharmacokinetic study in SD rats after oral administration of TWMM (UPLC-QQQ-MS of plasma); assay type: in vivo, Sprague-Dawley (SD) rats; conditions: oral TWMM 9.6 g/kg; for AUC(0-t): n = 6, read-out: AUC (0–36); for Cmax: n = 6, read-out: Cmax; for MRT last: n = 6, read-out: MRT (0–36); for MRT inf: n = 6, read-out: MRT (0–∞); for AUC(0-inf): read-out: areas under the concentration-time curve (AUC0–∞)
Experimental: Chromatographic separation was performed using an ACQUITY UPLC H-Class system equipped with a 1.8 μm HSS T3 analytical column (100 mm × 2.1 i.d., Waters Corporation, Milford, USA). […] ESI source was set to negative ionisation mode while the analysis was performed using multiple reaction monitorin. Ion spray voltage (3000 V), capillary temperature (450 °C), and the source parameters of the nine compounds are shown in Table 2.
The data obtained from the UPLC/Q-Orbitrap MS was imported into Xcalibur 4.0 software for analysis. Furthermore, the constituents acquired using GCMS-QP 2010 were profiled by comparison using the National Institute of Standards and Technology (NIST) database. The pharmacokinetic data were processed through MassLynx 4.1, and DAS 2.0 software was used to calculate the pharmacokinetic parameters according to the compartment model.
Six male SD rats (average weight: 220 ± 10 g) were acquired from Beijing Vital-River Laboratory Animal Technology Co., Ltd. All rats were acclimatized to an environmentally controlled laboratory for a week. Following this period, the rats were exposed to fasting conditions for 12 h but were allowed free access to water before the experiment. The rats were orally administered TWMM at a dose of 9.6 g/kg. Blood samples (300 µL) were collected into heparinized centrifuge tubes from the fossa orbitalis at pre-dose and 0.03, 0.08, 0.17, 0.25, 0.5, 1, 2, 4, 8, 12, 24, and 36 h intervals. The samples were immediately centrifuged at 6000 g for 10 min at 4 °C and the supernatants were transferred to clean centrifuge tubes.
Each 100 µL plasma sample was mixed with 20 µL of methanol, 20 µL of IS (5 µg/mL), and 600 µL acetonitrile. The mixtures were centrifuged at 15,000 g for 10 min at 4 °C after being vortexed for 3 min. The obtained supernatants were transferred to clean 1.5 mL centrifuge tubes, followed by evaporation under a milt nitrogen stream. Next, the obtained residues were individually redissolved in 100 µL of methanol and centrifuged at 15,000 g for 10 min at 4 °C after vortexed for 3 min. Lastly, 10 µL of individual supernatant was injected for analysis.

[2] = Stability of QC samples of 8 compounds in rat plasma (25 °C 4 h, autosampler 12 h, three freeze-thaw cycles, −80 °C 7 d); assay type: in vitro ADME; conditions: rat, plasma; for Stability in rat plasma, Long term (7 day, –80 °C), Measured: 168 h
Experimental: The calibration curves were assessed at eight concentration levels using the correlation coefficient (r). The lower limit of quantification (LLOQ) could fulfil the analytical requirements and achieved reliable accuracy and precision with a signal-to-noise ratio (S/N) ≥ 10. To determine intra- and inter-day precision and accuracy, six replicate quality control (QC) samples at three concentrations were prepared. Inter- and intra-day precision was evaluated by determining relative standard deviation (RSD) values, while accuracy was expressed in terms of the relative error (RE). The extraction recoveries were determined using three concentration levels and calculated by comparing the peak area of extracted samples with post-extracted spiked samples. Subsequently, matrix effects were assessed using the peak area of post-extracted spiked samples contrasted with QC samples at the three concentration levels. The stability test of QC samples at the three concentration levels was as follows: storage at 25 °C for 4 h, storage in an autosampler for 12 h, freeze-thaw cycle for three times, and storage at −80 °C for 7 d.
The stability tests were carried out under three freeze-thaw cycles, at 25 °C for 4 h, in an autosampler for 12 h, and at −80 °C for 7 d.

HUVEC cells = assay: Assay of intracellular reactive oxygen species (ROS), DCFH-DA, high glucose; assay type: cell-based, human; conditions: luteolin 20, 10, 5 µM or formononetin 40, 20, 10 µM for 2 h, then high glucose 24 h
Experimental: The generation of ROS was detected using dichloro-dihydro-fluorescein diacetate (DCFH-DA, reactive oxygen species assay kit, Solarbio, Beijing) as per manufacturer instructions. In this study, we seeded HUVEC cells in a 96-well plate at 7 × 10^3 per well. […] DCF fluorescence was assessed at F488/525 nm by using a bioassay multi-detection fluorescent plate reader (Tecan Spark, Switzerland).

[3] = design: method as in Guan et al. 2014; Cheruvu et al. 2018; Jia et al. 2020; conditions: in different herbal extracts and prescriptions; ref Guan et al. 2014; Cheruvu et al. 2018; Jia et al. 2020; cited from earlier work
[4] = male, Sprague-Dawley, rat, n = 6
[5] = male, Sprague-Dawley, rat, po, 9.6 g/kg, n = 6, read-out: Tmax

half-life [1, 4] [h] | AUC(0-t) ([1]; male, Sprague-Dawley, rat) [ng·h/mL] | Cmax ([1]; male, Sprague-Dawley, rat) [ng/mL] | MRT last ([1]; male, Sprague-Dawley, rat) [h] | MRT inf ([1]; male, Sprague-Dawley, rat) [h] | AUC(0-inf) ([1]; male, Sprague-Dawley, rat) [ng·h/mL] | Tmax ([1]; n = 6) [h] | Stability in rat plasma, Three freeze/thaw cycles, Measured ([2]; 1 ng/mL) [ng/mL] | Stability in rat plasma, Three freeze/thaw cycles, Measured ([2]; 10 ng/mL) [ng/mL] | Stability in rat plasma, Three freeze/thaw cycles, Measured ([2]; 200 ng/mL) [ng/mL] | Stability in rat plasma, Room temperature (4 h, 25 °C), Measured ([2]; 1 ng/mL) [ng/mL] | Stability in rat plasma, Room temperature (4 h, 25 °C), Measured ([2]; 10 ng/mL) [ng/mL] | Stability in rat plasma, Room temperature (4 h, 25 °C), Measured ([2]; 200 ng/mL) [ng/mL] | Stability in rat plasma, Autosampler (12 h, 4 °C), Measured ([2]; 1 ng/mL) [ng/mL] | Stability in rat plasma, Autosampler (12 h, 4 °C), Measured ([2]; 10 ng/mL) [ng/mL] | Stability in rat plasma, Autosampler (12 h, 4 °C), Measured ([2]; 200 ng/mL) [ng/mL] | Stability in rat plasma, Long term (7 day, –80 °C), Measured ([2]; 1 ng/mL) [ng/mL] | Stability in rat plasma, Long term (7 day, –80 °C), Measured ([2]; 10 ng/mL) [ng/mL] | Stability in rat plasma, Long term (7 day, –80 °C), Measured ([2]; 200 ng/mL) [ng/mL] | Structure (SMILES) | ROS generation induced by HG (HUVEC cells) | other results
11.7 ± 2.09 | 40.8 ± 8.51 | 6.17 ± 1.65 | 10.7 ± 1.17 | 15.7 ± 1.9 | 46 ± 7.89 | 0.46 ± 0.29 | 1.0 ± 0.1 | 10.1 ± 1.0 | 206.3 ± 21.0 | 1.1 ± 0.1 | 11.8 ± 0.2 | 220.6 ± 3.5 | 1.2 ± 0.1 | 10.1 ± 0.2 | 222.6 ± 3.6 | 1.1 ± 0.1 | 10.2 ± 0.2 | 216.0 ± 4.3 | COc1ccc(-c2coc3cc(O)ccc3c2=O)cc1 [Formononetin] | could alleviate the symptom of DR | Tmax ([1]; n = 6, listed as formononetin): ≤ 1 h
11.1 ± 10.2 | 38.5 ± 7.61 | 3.27 ± 0.78 | 11.4 ± 1.23 | 18.2 ± 9.14 | 44 ± 4.19 |  | 1.1 ± 0.1 | 11.4 ± 0.8 | 218.0 ± 9.9 | 1.2 ± 0.1 | 11.3 ± 0.3 | 217.9 ± 11.7 | 1.1 ± 0.1 | 10.0 ± 0.2 | 205.6 ± 0.9 | 1.0 ± 0.1 | 10.4 ± 0.6 | 221.9 ± 6.8 | O=c1cc(-c2ccc(O)c(O)c2)oc2cc(O)cc(O)c12 [Luteolin] | could alleviate the symptom of DR | Tmax [1, 5]: 1.71 ± 1.79 h; Tmax [3]: 0.50 to 2.83 h; t1/2 [3]: 3.63 to 12.10 h
3.36 | 1.03 ± 0.75 | 0.9 ± 0.82 | 1.53 ± 1.25 | 1.54 ± 1.25 | 1.03 ± 0.75 |  |  |  |  |  |  |  |  |  |  |  |  |  | C/C=C1/[C@H](O[C@@H]2O[C@H](CO)[C@@H](O)[C@H](O)[C@H]2O)OC=C(C(=O)OC)[C@H]1CC(=O)OCCc1ccc(O)c(O)c1 [Oleuropein] |  | Tmax [1, 5]: 1.37 ± 1.6 h; t1/2 ([1]; n = 6): rapid elimination; Stability in rat plasma, Three freeze/thaw cycles, Measured ([2]; 0.5 ng/mL): 0.5 ± 0.1 ng/mL; Stability in rat plasma, Three freeze/thaw cycles, Measured ([2]; 5 ng/mL): 5.1 ± 0.2 ng/mL; Stability in rat plasma, Three freeze/thaw cycles, Measured ([2]; 100 ng/mL): 103.6 ± 9.3 ng/mL; Stability in rat plasma, Room temperature (4 h, 25 °C), Measured ([2]; 0.5 ng/mL): 0.5 ± 0.1 ng/mL; Stability in rat plasma, Room temperature (4 h, 25 °C), Measured ([2]; 5 ng/mL): 4.3 ± 0.5 ng/mL; Stability in rat plasma, Room temperature (4 h, 25 °C), Measured ([2]; 100 ng/mL): 108.6 ± 7.8 ng/mL; Stability in rat plasma, Autosampler (12 h, 4 °C), Measured ([2]; 0.5 ng/mL): 0.4 ± 0.1 ng/mL; Stability in rat plasma, Autosampler (12 h, 4 °C), Measured ([2]; 5 ng/mL): 0.5 ± 0.0 ng/mL; Stability in rat plasma, Autosampler (12 h, 4 °C), Measured ([2]; 100 ng/mL): 93.4 ± 8.6 ng/mL; Stability in rat plasma, Long term (7 day, –80 °C), Measured ([2]; 0.5 ng/mL): 1.0 ± 0.0 ng/mL; Stability in rat plasma, Long term (7 day, –80 °C), Measured ([2]; 5 ng/mL): 4.9 ± 0.3 ng/mL; Stability in rat plasma, Long term (7 day, –80 °C), Measured ([2]; 100 ng/mL): 113.9 ± 9.9 ng/mL
2.08 ± 0.38 | 175 ± 40.8 | 45.5 ± 21.2 | 8.9 ± 3.44 | 8.91 ± 3.44 | 175 ± 40.8 | 0.25 ± 0.14 |  |  |  |  |  |  |  |  |  |  |  |  | C[C@@H]1O[C@@H](O[C@@H]2[C@@H](O)[C@H](OCCc3ccc(O)c(O)c3)O[C@H](CO)[C@H]2OC(=O)/C=C/c2ccc(O)c(O)c2)[C@H](O)[C@H](O)[C@H]1O [Verbascoside] |  | Tmax ([1]; n = 6, listed as verbascoside): ≤ 1 h; t1/2 ([1]; n = 6, listed as verbascoside): rapid elimination; Stability in rat plasma, Three freeze/thaw cycles, Measured ([2]; 2 ng/mL): 2.0 ± 0.1 ng/mL; Stability in rat plasma, Three freeze/thaw cycles, Measured ([2]; 20 ng/mL): 21.8 ± 1.9 ng/mL; Stability in rat plasma, Three freeze/thaw cycles, Measured ([2]; 400 ng/mL): 416.4 ± 17.6 ng/mL; Stability in rat plasma, Room temperature (4 h, 25 °C), Measured ([2]; 2 ng/mL): 2.2 ± 0.1 ng/mL; Stability in rat plasma, Room temperature (4 h, 25 °C), Measured ([2]; 20 ng/mL): 19.6 ± 1.0 ng/mL; Stability in rat plasma, Room temperature (4 h, 25 °C), Measured ([2]; 400 ng/mL): 427.6 ± 13.8 ng/mL; Stability in rat plasma, Autosampler (12 h, 4 °C), Measured ([2]; 2 ng/mL): 2.1 ± 0.2 ng/mL; Stability in rat plasma, Autosampler (12 h, 4 °C), Measured ([2]; 20 ng/mL): 23.8 ± 1.8 ng/mL; Stability in rat plasma, Autosampler (12 h, 4 °C), Measured ([2]; 400 ng/mL): 402.4 ± 19.1 ng/mL; Stability in rat plasma, Long term (7 day, –80 °C), Measured ([2]; 2 ng/mL): 1.9 ± 0.2 ng/mL; Stability in rat plasma, Long term (7 day, –80 °C), Measured ([2]; 20 ng/mL): 21.3 ± 1.8 ng/mL; Stability in rat plasma, Long term (7 day, –80 °C), Measured ([2]; 400 ng/mL): 430.0 ± 6.2 ng/mL

Reference: paper PMC8491704, “Pharmacokinetic study of Tangwang Mingmu granule for the management of diabetic retinopathy based on network pharmacology” (Pharmaceutical Biology, 2021)
